What all share (type): in vivo
Common to all, as to conditions: rated 30 days after application

Data set [1] concerns Scirpus juncoides. The data set is described as follows: Submersion test, treatment 3 days after transplantation: herbicidal effect. As for the experimental part: (§1) A mixture consisting of 57 parts by weight of talc and 40 parts by weight of bentonite as carrier and 3 parts by weight of sodium alkylbenzenesulfonate as surfactant was pulverized and mixed uniformly to obtain a carrier for wettable powder. Each herbicidal composition was prepared by uniformly pulverizing and mixing 90 parts by weight of the carrier for wettable powder and 10 parts by weight of the benzothiophene derivative produced in each example.
(§2) Seeds of Scirpus juncoides were sowed onto paddy field soil in a Wagner pot of 1/2000 are. Then, rice seedlings of 2.5 leaf stage were transplanted in the soil. Water was pored into the pot so as to submerge the soil at a depth of 3 cm. The pot was placed in a greenhouse maintained at 20 to 25° C. for vegetation. After 3 days from transplantation of the rice seedlings, a predetermined amount of the herbicidal composition prepared in the step [1] was applied to the pot. After 30 days from the application of the herbicidal composition, the herbicidal effect and injury to the paddy rice were determined.
(§3) The herbicidal effect and the injury to crops in the above tests (1) and (2) were evaluated based on the following ratings.
(§4) The degree of weed control (%) was calculated from the weights of the above-ground parts of fresh weeds in the treated area and the untreated area using the following equation:
(§5) Degree of weed control (%)=[1−(weight of weeds in treated area)/(weight of weeds in untreated area)]×100
(§6) The herbicidal effect was determined according to the following ratings: […]

In data set [2] the test system is Scirpus juncoides. The data set is described as follows: Submersion test, treatment 10 days after transplantation: herbicidal effect. How it is done:
as §1
as §2, with “vegetation. After 10 days from” for “vegetation. After 3 days from”
as §3, §4, §5, §6

Another data set has as its system paddy rice. The data set is described as follows: Submersion test, treatment 3 days after transplantation: injury to paddy rice. More on the design: key: 0: No injury; 1: Substantially no injury; 2: Slight injury; 3: Some injury; 4: Remarkable injury; 5: Almost all crops dead. How it is done:
A mixture consisting of 57 parts by weight of talc and 40 parts by weight of bentonite as carrier and 3 parts by weight of sodium alkylbenzenesulfonate as surfactant was pulverized and mixed uniformly to obtain a carrier for wettable powder. […] Then, rice seedlings of 2.5 leaf stage were transplanted in the soil. Water was pored into the pot so as to submerge the soil at a depth of 3 cm. The pot was placed in a greenhouse maintained at 20 to 25° C. for vegetation. […] After 30 days from the application of the herbicidal composition, the herbicidal effect and injury to the paddy rice were determined. […] The injury to crops was evaluated according to the following ratings: [table]

For the compound `CO/N=C/CSC1Cc2c(ccc(C(=O)C3C(=O)CCCC3=O)c2Cl)S1(=O)=O` (single isomer, unassigned) [Compound No. 8, 4-chloro-2-(2-methoxyiminoethyl)thio-5-(1,3-dioxocyclohex-2-yl)carbonyl-2,3-dihydrobenzothiophene 1,1-dioxide], the “Herbicidal effect Scirpus juncoides” value is given as 4 (70% or higher but less than 90%) in the data set on Scirpus juncoides [1] (application rate 100 g/ha), 5 (90% or higher (almost completely dead)) in the data set on Scirpus juncoides [1] (application rate 200 g/ha), 5 (90% or higher (almost completely dead)) with Scirpus juncoides [2] (application rate 100 g/ha) and 5 (90% or higher (almost completely dead)) in the data set with Scirpus juncoides [2] (application rate 200 g/ha). Moreover, the Injury paddy rice in the data set on paddy rice (application rate 100 g/ha) and in the data set with paddy rice (application rate 200 g/ha) was 0 each time.
`C[S+]([O-])C1Cc2c(ccc(C(=O)C3=C(Cl)CCCC3=O)c2Cl)S1(=O)=O` (single isomer, unassigned) [Compound No. 28, 4-chloro-2-methanesulfinyl-5-(3-chloro-1-oxo-2-cyclohexen-2-yl)carbonyl-2,3-dihydrobenzothiophene 1,1-dioxide]: the “Herbicidal effect Scirpus juncoides” value with Scirpus juncoides [1] (application rate 100 g/ha), in the data set on Scirpus juncoides [1] (application rate 200 g/ha), in the data set on Scirpus juncoides [2] (application rate 100 g/ha) and in the data set on Scirpus juncoides [2] (application rate 200 g/ha) was 5 (90% or higher (almost completely dead)) in each case. Further, the Injury paddy rice with paddy rice (application rate 100 g/ha) and in the data set with paddy rice (application rate 200 g/ha) was 0 each time.
`CS(=O)(=O)c1ccc(C(=O)C2=C(Sc3ccccc3)C3CCC(C3)C2=O)c(Cl)c1` (stereo not drawn) [(B), reference compound]: the “Herbicidal effect Scirpus juncoides” value is recorded as 3 (40% or higher but less than 70%) with Scirpus juncoides [1] (application rate 100 g/ha), 4 (70% or higher but less than 90%) with Scirpus juncoides [1] (application rate 200 g/ha), 2 (20% or higher but less than 40%) in the data set on Scirpus juncoides [2] (application rate 100 g/ha) and 3 (40% or higher but less than 70%) with Scirpus juncoides [2] (application rate 200 g/ha). The Injury paddy rice with paddy rice (application rate 100 g/ha) and in the data set on paddy rice (application rate 200 g/ha) was 0 throughout.
Consider `CCSC1Cc2c(ccc(C(=O)C3C(=O)CCCC3=O)c2Cl)S1(=O)=O` (stereo not drawn) [Compound No. 2, 4-chloro-2-ethylthio-5-(1,3-cdioxocyclohex-2-yl)carbonyl-2,3-cdihydrobenzothiophene 1,1-dioxide], for which the “Herbicidal effect Scirpus juncoides” value with Scirpus juncoides [1] (application rate 100 g/ha), with Scirpus juncoides [1] (application rate 200 g/ha), with Scirpus juncoides [2] (application rate 100 g/ha) and in the data set with Scirpus juncoides [2] (application rate 200 g/ha) was 5 (90% or higher (almost completely dead)) throughout. In addition, the Injury paddy rice in the data set on paddy rice (application rate 100 g/ha) and in the data set with paddy rice (application rate 200 g/ha) was 0 each time.
For `COCCSC1Cc2c(ccc(C(=O)C3C(=O)CCCC3=O)c2Cl)S1(=O)=O` (stereo not drawn) [Compound No. 5, 4-chloro-2-(2-methoxyethyl)thio-5-(1,3-dioxocyclohex-2-yl)carbonyl-2,3-dihydrobenzothiophene 1,1-dioxide], the “Herbicidal effect Scirpus juncoides” value in the data set on Scirpus juncoides [1] (application rate 100 g/ha), with Scirpus juncoides [1] (application rate 200 g/ha), in the data set on Scirpus juncoides [2] (application rate 100 g/ha) and in the data set on Scirpus juncoides [2] (application rate 200 g/ha) was 5 (90% or higher (almost completely dead)) each time. Moreover, the Injury paddy rice in the data set on paddy rice (application rate 100 g/ha) and with paddy rice (application rate 200 g/ha) was 0 each time.
For `CS(=O)(=O)C1Cc2c(ccc(C(=O)C3C(=O)CCCC3=O)c2Cl)S1(=O)=O` (stereo not drawn) [Compound No. 15, 4-chloro-2-methanesulfonyl-5-(1,3-dioxocyclohex-2-yl)carbonyl-2,3-dihydrobenzothiophene 1,1-dioxide], the “Herbicidal effect Scirpus juncoides” value in the data set with Scirpus juncoides [1] (application rate 100 g/ha) was 5 (90% or higher (almost completely dead)); in the data set on Scirpus juncoides [1] (application rate 200 g/ha), 5 (90% or higher (almost completely dead)); in the data set with Scirpus juncoides [2] (application rate 100 g/ha), 4 (70% or higher but less than 90%); with Scirpus juncoides [2] (application rate 200 g/ha), 5 (90% or higher (almost completely dead)). Also, the Injury paddy rice in the data set with paddy rice (application rate 100 g/ha) and with paddy rice (application rate 200 g/ha) was 0 each time.
For the compound `CSC1Cc2c(ccc(C(=O)C3=C(Cl)CCCC3=O)c2Cl)S1(=O)=O` (stereo not drawn) [Compound No. 17, 4-chloro-2-methylthio-5-(3-chloro-1-oxo-2-cyclohexen-2-yl)carbonyl-2,3-dihydrobenzothiophene 1,1-dioxide], the “Herbicidal effect Scirpus juncoides” value in the data set on Scirpus juncoides [1] (application rate 100 g/ha), in the data set with Scirpus juncoides [1] (application rate 200 g/ha), with Scirpus juncoides [2] (application rate 100 g/ha) and with Scirpus juncoides [2] (application rate 200 g/ha) was 5 (90% or higher (almost completely dead)) in each case. Besides, the Injury paddy rice with paddy rice (application rate 100 g/ha) and in the data set on paddy rice (application rate 200 g/ha) was 0 in each case.
Take `CS(=O)(=O)C1Cc2c(ccc(C(=O)C3=C(Cl)CCCC3=O)c2Cl)S1(=O)=O` (stereo not drawn) [Compound No. 18, 4-chloro-2-methanesulfonyl-5-(3-chloro-1-oxo-2-cyclohexen-2-yl)carbonyl-2,3-dihydrobenzothiophene 1,1-dioxide]: the “Herbicidal effect Scirpus juncoides” value in the data set with Scirpus juncoides [1] (application rate 100 g/ha) is given as 4 (70% or higher but less than 90%); in the data set with Scirpus juncoides [1] (application rate 200 g/ha), 5 (90% or higher (almost completely dead)); in the data set on Scirpus juncoides [2] (application rate 100 g/ha) it was 4 (70% or higher but less than 90%); in the data set on Scirpus juncoides [2] (application rate 200 g/ha), 5 (90% or higher (almost completely dead)). Also, the Injury paddy rice in the data set on paddy rice (application rate 100 g/ha) and with paddy rice (application rate 200 g/ha) was 0 in each case.
In the case of `CCSC1Cc2c(ccc(C(=O)C3=C(Cl)CCCC3=O)c2Cl)S1(=O)=O` (stereo not drawn) [Compound No. 19, 4-chloro-2-ethylthio-5-(3-chloro-1-oxo-2-cyclohexen-2-yl)carbonyl-2,3-dihydrobenzothiophene 1,1-dioxide], the “Herbicidal effect Scirpus juncoides” value in the data set with Scirpus juncoides [1] (application rate 100 g/ha) was 5 (90% or higher (almost completely dead)); in the data set on Scirpus juncoides [1] (application rate 200 g/ha), 5 (90% or higher (almost completely dead)); in the data set on Scirpus juncoides [2] (application rate 100 g/ha), 4 (70% or higher but less than 90%); in the data set with Scirpus juncoides [2] (application rate 200 g/ha), 5 (90% or higher (almost completely dead)). Besides, the Injury paddy rice in the data set with paddy rice (application rate 100 g/ha) and in the data set on paddy rice (application rate 200 g/ha) was 0 each time.
`COCCSC1Cc2c(ccc(C(=O)C3=C(Cl)CCCC3=O)c2Cl)S1(=O)=O` (stereo not drawn) [Compound No. 25, 4-chloro-2-(2-methoxyethyl)thio-5-(3-chloro-1-oxo-2-cyclohexen-2-yl)carbonyl-2,3-dihydrobenzothiophene 1,1-dioxide]: the “Herbicidal effect Scirpus juncoides” value was 4 (70% or higher but less than 90%) in the data set on Scirpus juncoides [1] (application rate 100 g/ha), 5 (90% or higher (almost completely dead)) with Scirpus juncoides [1] (application rate 200 g/ha), 4 (70% or higher but less than 90%) in the data set with Scirpus juncoides [2] (application rate 100 g/ha) and 5 (90% or higher (almost completely dead)) with Scirpus juncoides [2] (application rate 200 g/ha). Further, the Injury paddy rice in the data set with paddy rice (application rate 100 g/ha) and in the data set on paddy rice (application rate 200 g/ha) was 0 in each case.
For the compound `COC(=O)CSC1Cc2c(ccc(C(=O)C3=C(Cl)CCCC3=O)c2Cl)S1(=O)=O` (stereo not drawn) [Compound No. 27, 4-chloro-2-(methoxycarbonylmethyl)thio-5-(3-chloro-1-oxo-2-cyclohexen-2-yl)carbonyl-2,3-dihydrobenzothiophene 1,1-dioxide], the “Herbicidal effect Scirpus juncoides” value is 4 (70% or higher but less than 90%) in the data set on Scirpus juncoides [1] (application rate 100 g/ha), 5 (90% or higher (almost completely dead)) with Scirpus juncoides [1] (application rate 200 g/ha), 4 (70% or higher but less than 90%) in the data set on Scirpus juncoides [2] (application rate 100 g/ha) and 5 (90% or higher (almost completely dead)) in the data set with Scirpus juncoides [2] (application rate 200 g/ha). In addition, the Injury paddy rice in the data set with paddy rice (application rate 100 g/ha) and in the data set with paddy rice (application rate 200 g/ha) was 0 in each case.
In the case of `CSC1Cc2c(ccc(C(=O)C3=C(SCCO)CCCC3=O)c2Cl)S1(=O)=O` (stereo not drawn) [Compound No. 31, 4-chloro-2-methylthio-5-[3-(2-hydroxyethyl)thio-1-oxo-2-cyclohexen-2-yl]carbonyl-2,3-dihydrobenzothiophene 1,1-dioxide], the “Herbicidal effect Scirpus juncoides” value with Scirpus juncoides [1] (application rate 100 g/ha), with Scirpus juncoides [1] (application rate 200 g/ha), with Scirpus juncoides [2] (application rate 100 g/ha) and in the data set with Scirpus juncoides [2] (application rate 200 g/ha) was 5 (90% or higher (almost completely dead)) throughout. The Injury paddy rice in the data set with paddy rice (application rate 100 g/ha) and with paddy rice (application rate 200 g/ha) was 0 each time.

The values above are taken from US20040058957A1, “Benzothiophene derivatives and herbicidal compositions containing the same” (priority 2000, published 2004).
